Where two headings read alike, the source gives them in different places.
Tests used:
[1] = target: human TLR7 (Homo sapiens (Human), UniProt Q9NYK1); assay: TLR7 inhibition reporter assay (HEK-Blue SEAP); assay type: cell-based
[2] = target: human TLR8 (Homo sapiens (Human), UniProt Q9NR97); assay: TLR8 inhibition reporter assay (HEK-Blue SEAP);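 further: SEAP driven by IFN-β minimal promoter carrying NF-κB and AP-1 sites, compounds dosed 0.05 nM to 50 µM for 22 h, inhibition scaled between agonist-plus-DMSO and reference-inhibitor wells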
Chain of human TLR8 (Q9NR97 27-1041): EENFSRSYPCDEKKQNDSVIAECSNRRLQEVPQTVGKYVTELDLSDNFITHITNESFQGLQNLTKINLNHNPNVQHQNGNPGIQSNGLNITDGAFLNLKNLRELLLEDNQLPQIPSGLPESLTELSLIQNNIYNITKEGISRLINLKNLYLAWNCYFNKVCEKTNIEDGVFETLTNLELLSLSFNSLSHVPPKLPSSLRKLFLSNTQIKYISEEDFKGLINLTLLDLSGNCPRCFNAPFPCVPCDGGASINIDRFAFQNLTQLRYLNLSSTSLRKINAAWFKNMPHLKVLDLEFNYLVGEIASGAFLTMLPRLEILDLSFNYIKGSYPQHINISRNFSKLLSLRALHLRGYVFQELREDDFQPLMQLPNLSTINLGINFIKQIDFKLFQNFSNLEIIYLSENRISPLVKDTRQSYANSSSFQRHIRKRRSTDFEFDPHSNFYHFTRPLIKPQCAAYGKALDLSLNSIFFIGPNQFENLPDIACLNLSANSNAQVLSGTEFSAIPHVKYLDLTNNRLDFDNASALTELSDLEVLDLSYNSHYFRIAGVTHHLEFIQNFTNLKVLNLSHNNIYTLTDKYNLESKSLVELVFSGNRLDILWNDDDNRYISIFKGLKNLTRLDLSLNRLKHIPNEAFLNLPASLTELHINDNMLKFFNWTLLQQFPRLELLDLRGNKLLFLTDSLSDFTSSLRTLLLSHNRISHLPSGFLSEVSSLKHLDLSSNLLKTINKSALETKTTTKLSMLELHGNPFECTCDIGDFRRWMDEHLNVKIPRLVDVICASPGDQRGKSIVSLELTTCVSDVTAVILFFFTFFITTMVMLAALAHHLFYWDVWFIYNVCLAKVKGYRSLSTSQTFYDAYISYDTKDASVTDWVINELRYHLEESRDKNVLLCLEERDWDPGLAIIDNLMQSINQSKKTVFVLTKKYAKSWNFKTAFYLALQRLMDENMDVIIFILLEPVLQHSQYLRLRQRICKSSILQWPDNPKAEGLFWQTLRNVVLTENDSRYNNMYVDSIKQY

[3] = target: human TLR9 (Homo sapiens (Human), UniProt Q9NR96); assay: TLR9 inhibition reporter assay (HEK-Blue SEAP);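 further: SEAP driven by an IFN-β minimal promoter with NF-κB and AP-1 sites, read after 22 h, compounds dosed 0.05 nM–50 µM, inhibition scaled between agonist plus DMSO and reference-inhibitor wells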
Chain of human TLR9 (Q9NR96 26-1032): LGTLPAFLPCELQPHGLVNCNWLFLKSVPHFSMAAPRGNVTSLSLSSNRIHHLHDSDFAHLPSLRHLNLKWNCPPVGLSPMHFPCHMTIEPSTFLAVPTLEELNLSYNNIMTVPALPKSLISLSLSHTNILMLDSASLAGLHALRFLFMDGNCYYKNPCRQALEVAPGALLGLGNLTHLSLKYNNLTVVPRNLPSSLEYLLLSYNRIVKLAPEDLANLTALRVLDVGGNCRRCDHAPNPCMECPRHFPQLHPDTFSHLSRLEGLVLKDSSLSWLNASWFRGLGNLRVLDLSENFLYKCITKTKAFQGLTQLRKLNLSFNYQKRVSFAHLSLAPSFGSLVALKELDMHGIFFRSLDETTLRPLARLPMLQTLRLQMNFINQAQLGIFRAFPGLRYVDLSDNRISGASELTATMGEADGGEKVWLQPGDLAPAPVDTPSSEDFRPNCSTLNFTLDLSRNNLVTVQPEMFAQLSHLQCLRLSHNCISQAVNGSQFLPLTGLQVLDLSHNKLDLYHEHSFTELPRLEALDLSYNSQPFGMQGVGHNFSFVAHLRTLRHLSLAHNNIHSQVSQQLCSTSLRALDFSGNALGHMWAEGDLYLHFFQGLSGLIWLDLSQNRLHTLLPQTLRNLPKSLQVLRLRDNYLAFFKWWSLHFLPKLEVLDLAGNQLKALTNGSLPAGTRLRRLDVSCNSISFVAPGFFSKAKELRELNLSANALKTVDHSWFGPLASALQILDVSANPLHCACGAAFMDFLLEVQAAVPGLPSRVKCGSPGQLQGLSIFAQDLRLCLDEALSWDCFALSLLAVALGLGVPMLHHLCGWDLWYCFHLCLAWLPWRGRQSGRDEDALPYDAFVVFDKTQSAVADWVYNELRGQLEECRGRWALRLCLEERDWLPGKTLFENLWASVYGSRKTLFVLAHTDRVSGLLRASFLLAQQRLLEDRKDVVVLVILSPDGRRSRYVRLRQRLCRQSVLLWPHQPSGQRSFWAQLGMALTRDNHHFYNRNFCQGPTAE
Method: HEK-Blue™-cells (Invivogen) overexpressing human TLR7, TLR8 or TLR9 receptors were used for screening inhibitors of these receptors using an inducible SEAP (secreted embryonic alkaline phosphatase) reporter gene under the control of the IFN-β minimal promoter fused to five NF-κB and AP-1-binding sites. Briefly, cells are seeded into Greiner 384 well plates (15000 cells per well for TLR7, 20,000 for TLR8 and 25,000 for TLR9) and then treated with test compounds in DMSO to yield a final dose response concentration range of 0.05 nM-50 μM. After a 30 minute compound pre-treatment at room temperature, the cells are then stimulated with a TLR7 ligand (gardiquimod at a final concentration of 7.5 μM), TLR8 ligand (R848 at a final concentration of 15.9 μM) or TLR9 ligand (ODN2006 at a final concentration of 5 nM) to activate NF-κB and AP-1 which induce the production of SEAP. After a 22 hour incubation at 37° C., 5% CO2, SEAP levels are determined with the addition of HEK-Blue™ Detection reagent (Invivogen), a cell culture medium that allows for detection of SEAP, according to manufacturer's specifications.

[4] = HEK-Blue cells overexpressing human TLR7, gardiquimod 7.5 μM stimulation, SEAP reporter
[5] = read-out: TLR8 IC50, HEK-Blue cells overexpressing human TLR8, R848 15.9 μM stimulation, SEAP reporter
[6] = read-out: TLR9 IC50, HEK-Blue cells overexpressing human TLR9, ODN2006 5 nM stimulation, SEAP reporter
[7] = HEK-Blue human TLR7 cells, gardiquimod 7.5 μM
[8] = read-out: TLR8 IC50, HEK-Blue human TLR8 cells, R848 15.9 μM
[9] = read-out: TLR9 IC50, HEK-Blue human TLR9 cells, ODN2006 5 nM
[10] = HEK-Blue cells overexpressing human TLR7, SEAP reporter, gardiquimod 7.5 μM
[11] = read-out: TLR8 IC50, HEK-Blue cells overexpressing human TLR8, SEAP reporter, R848 15.9 μM
[12] = read-out: TLR9 IC50, HEK-Blue cells overexpressing human TLR9, SEAP reporter, ODN2006 5 nM

Chain of human TLR7 (Q9NYK1 27-1049): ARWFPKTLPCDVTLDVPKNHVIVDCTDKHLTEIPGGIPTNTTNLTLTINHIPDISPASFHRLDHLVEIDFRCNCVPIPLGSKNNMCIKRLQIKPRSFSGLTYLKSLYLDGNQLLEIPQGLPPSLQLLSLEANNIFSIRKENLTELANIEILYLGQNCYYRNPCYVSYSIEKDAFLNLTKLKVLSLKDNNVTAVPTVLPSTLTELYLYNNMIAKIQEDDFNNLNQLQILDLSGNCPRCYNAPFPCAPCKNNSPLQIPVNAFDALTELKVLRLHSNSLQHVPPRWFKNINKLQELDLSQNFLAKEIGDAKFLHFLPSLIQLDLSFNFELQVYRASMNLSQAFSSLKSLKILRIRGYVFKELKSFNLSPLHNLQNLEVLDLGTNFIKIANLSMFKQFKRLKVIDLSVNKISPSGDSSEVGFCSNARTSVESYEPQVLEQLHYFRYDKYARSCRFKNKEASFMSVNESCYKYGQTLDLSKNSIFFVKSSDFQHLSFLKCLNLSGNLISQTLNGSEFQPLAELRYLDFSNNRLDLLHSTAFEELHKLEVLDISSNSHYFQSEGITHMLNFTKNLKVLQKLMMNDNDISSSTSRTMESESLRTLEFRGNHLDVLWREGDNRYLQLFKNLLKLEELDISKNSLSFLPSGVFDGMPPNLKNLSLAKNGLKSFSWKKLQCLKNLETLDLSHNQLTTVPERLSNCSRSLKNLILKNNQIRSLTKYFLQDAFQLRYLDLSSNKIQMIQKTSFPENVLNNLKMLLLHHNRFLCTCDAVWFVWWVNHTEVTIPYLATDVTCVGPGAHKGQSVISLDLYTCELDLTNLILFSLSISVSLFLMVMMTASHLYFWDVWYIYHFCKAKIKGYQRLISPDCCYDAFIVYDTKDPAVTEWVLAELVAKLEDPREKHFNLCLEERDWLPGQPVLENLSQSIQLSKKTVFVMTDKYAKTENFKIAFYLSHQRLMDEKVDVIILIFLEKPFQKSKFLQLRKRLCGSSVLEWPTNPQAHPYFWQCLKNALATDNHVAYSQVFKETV

Compound `CC(C)c1c(-c2cn(C)c3ncccc23)[nH]c2ccc(N3CCC(N(CC(=O)N(C)C)CC(=O)N(C)C)CC3)nc12` [Example 54] has an IC50 [1, 4] of 2.9 nM, an IC50 [2, 5] of 2.8 nM and an IC50 [3, 6] of 10400 nM.
Compound `Cc1c(-c2[nH]c3ccc(N4CCN(C(=O)CN5CCCC5)C[C@@H]4C)nc3c2C(C)C)cn2ncnc2c1C` [Example 825] has an IC50 [1, 7] of 0.53 nM, an IC50 [2, 8] of 1.1 nM and an IC50 [3, 9] of 6280 nM.
With `COc1cc(-c2[nH]c3ccc(OCC4CN(C(C)C)C4)nc3c2C(C)C)cn2ncnc12` [Example 592, 6-(3-isopropyl-5-((1-isopropylazetidin-3-yl)methoxy)-1H-pyrrolo[3,2-b]pyridin-2-yl)-8-methoxy-[1,2,4]triazolo[1,5-a]pyridine] the IC50 [1, 10] was 2.9 nM, the IC50 [2, 11] was 7.4 nM and the IC50 [3, 12] was 2240 nM.
For `Cc1c(-c2[nH]c3ccc(N4CCN(CCN5CCOCC5)C(=O)C4)nc3c2C(C)C)cn2ncnc2c1C` [Example 155], the IC50 [1, 4] was 401 nM, the IC50 [2, 5] was 56 nM and the IC50 [3, 6] was > 50000 nM.
Work on `Cc1c(-c2[nH]c3ccc(N4C[C@@H](C)N[C@H](C)C4)nc3c2C(C)C)cn2ncnc2c1C` [Example 884] yielded an IC50 [1, 7] of 0.9 nM, an IC50 [2, 8] of 0.17 nM and an IC50 [3, 9] of 6500 nM.
Work on `Cc1c(-c2[nH]c3ccc(C4CCC(NC(C)C)CC4)nc3c2C(C)C)cn2ncnc2c1C` (stereo not drawn) [Example 358] yielded an IC50 [1, 4] of 0.95 nM, an IC50 [2, 5] of 2.8 nM and an IC50 [3, 6] of 1320 nM.
In the case of `[2H]C([2H])([2H])N(CC(=O)N1CCN(c2ccc3[nH]c(-c4cn5ncnc5c(C)c4C)c(C(C)C)c3n2)[C@H](C)C1)C([2H])([2H])[2H]` [Example 838], the IC50 [1, 7] is reported as 0.6 nM, the IC50 ([2]; TLR8 IC50, HEK-Blue human TLR8 cells, R848 15.9 μM) is reported as 3.5 nM and the IC50 ([3]; TLR9 IC50, HEK-Blue human TLR9 cells, ODN2006 5 nM) is reported as 9890 nM.
Compound `Cc1c(-c2[nH]c3ccc(C4CCC(N(C)CC(=O)N(C)C)CC4)nc3c2C(C)C)cn2ncnc2c1C` (stereo not drawn) [Example 368, 2-((4-(2-(7,8-dimethyl-[1,2,4]triazolo[1,5-a]pyridin-6-yl)-3-isopropyl-1H-pyrrolo[3,2-b]pyridin-5-yl)cyclohexyl)(methyl)amino)-N,N-dimethylacetamide] has an IC50 [1, 4] of 1.5 nM, an IC50 [2, 5] of 2.5 nM and an IC50 [3, 6] of 1610 nM.
Work on `Cc1c(-c2[nH]c3ccc(C4CN(C(C)C)C4)nc3c2C(C)C)cn2ncnc2c1C` [Example 656] yielded an IC50 [1, 10] of 1.4 nM, an IC50 [2, 11] of 4.7 nM and an IC50 [3, 12] of 1850 nM.
With `Cc1c(-c2[nH]c3ccc(C4CCC(NCCO)CC4)nc3c2C(C)C)cn2ncnc2c1C` (stereo not drawn) [Example 409] the IC50 [1, 10] was 1.7 nM, the IC50 [2, 11] was 1.6 nM and the IC50 [3, 12] was 550 nM.
With `Cc1c(-c2[nH]c3ccc(C4CCC(N5CCC6(COC6)C5)CC4)nc3c2C(C)C)cn2ncnc2c1C` (stereo not drawn) [Example 1063] the IC50 [1, 7] was 10 nM, the IC50 [2, 8] was 18 nM and the IC50 [3, 9] was 8060 nM.
For `CC(C)c1c(-c2cn(C)c3ncncc23)[nH]c2ccc(N3CCN(C)CC3)nc12` [Example 125], the IC50 [1, 4] was 2.6 nM, the IC50 [2, 5] was 0.66 nM and the IC50 [3, 6] was 6540 nM.
`Cc1c(-c2[nH]c3ccc(C4CCC(N)CC4)nc3c2C(C)C)cn2ncnc2c1C` (stereo not drawn) [Example 469] was tested, and the IC50 [1, 10] was 0.98 nM, the IC50 [2, 11] was 2.9 nM and the IC50 [3, 12] was 1710 nM.
With `Cc1c(-c2[nH]c3ccc(C4CN(C5CCOCC5)CCO4)nc3c2C(C)C)cn2ncnc2c1C` (stereo not drawn) [Example 664] the IC50 [1, 10] was 22 nM, the IC50 [2, 11] was 14 nM and the IC50 [3, 12] was 38500 nM.
`Cc1c(-c2[nH]c3ccc(C4CCC(N(C)Cc5c[nH]nn5)CC4)nc3c2C(C)C)cn2ncnc2c1C` (stereo not drawn) [Example 397] gave an IC50 [1, 10] of 6.3 nM, an IC50 [2, 11] of 10 nM and an IC50 [3, 12] of 2400 nM.
`Cc1c(-c2[nH]c3ccc(C4CCC(=O)CC4)nc3c2C(C)C)cn2ncnc2c1C` [Example 349] was tested, and the IC50 [1, 4] was 7.7 nM, the IC50 [2, 5] was 63 nM and the IC50 [3, 6] was > 50000 nM.
`COc1cc(-c2[nH]c3ccc(N4CC5(CN(CC(C)(C)O)C5)C4)nc3c2C(C)C)cn2ncnc12` [Example 1021] showed an IC50 [1, 7] of 4.3 nM, an IC50 [2, 8] of 11 nM and an IC50 [3, 9] of 5330 nM.
Compound `Cc1c(-c2[nH]c3ccc(C4CN(CCS(C)(=O)=O)C4)nc3c2C(C)C)cn2ncnc2c1C` [Example 653, 6-(3-isopropyl-5-(1-(2-(methylsulfonyl)ethyl)azetidin-3-yl)-1H-pyrrolo[3,2-b]pyridin-2-yl)-7,8-dimethyl-[1,2,4]triazolo[1,5-a]pyridine] has an IC50 [1, 10] of 5.5 nM, an IC50 [2, 11] of 13 nM and an IC50 [3, 12] of 13200 nM.
For `Cc1c(-c2[nH]c3ccc(N4C[C@@H](C)N(C(=O)CCN5CCCC5)C[C@@H]4C)nc3c2C(C)C)cn2ncnc2c1C` [Example 739, 1-((2R,5S)-4-(2-(7,8-dimethyl-[1,2,4]triazolo[1,5-a]pyridin-6-yl)-3-isopropyl-1H-pyrrolo[3,2-b]pyridin-5-yl)-2,5-dimethylpiperazin-1-yl)-3-(pyrrolidin-1-yl)propan-1-one], the IC50 [1, 10] was 0.85 nM, the IC50 [2, 11] was 1.6 nM and the IC50 [3, 12] was 5320 nM.
In the case of `CC(C)c1c(-c2cn(C)c3ncccc23)[nH]c2ccc(C3CCC(NC4CCOCC4)CC3)nc12` (stereo not drawn) [Example 265], the IC50 [1, 4] is reported as 0.59 nM, the IC50 [2, 5] is reported as 0.91 nM and the IC50 [3, 6] is reported as 392 nM.
For `COc1cc(-c2[nH]c3ccc(C4CCC(NC(C)C)C4)nc3c2C(C)C)cn2ncnc12` (stereo not drawn) [Example 723], the IC50 [1, 10] was 0.99 nM, the IC50 [2, 11] was 2.4 nM and the IC50 [3, 12] was 4390 nM.
Compound `Cc1c(-c2[nH]c3ccc(C4CCC(N(C)C5COC5)CC4)nc3c2C(C)C)cn2ncnc2c1C` (stereo not drawn) [Example 401] has an IC50 [1, 10] of 5.7 nM, an IC50 [2, 11] of 6.4 nM and an IC50 [3, 12] of 5720 nM.
For `COc1cc(-c2[nH]c3ccc(N4CCN(C5CCC5)CC4)nc3c2C(C)C)cn2ncnc12` [Example 108], the IC50 [1, 4] was 2.5 nM, the IC50 [2, 5] was 0.99 nM and the IC50 [3, 6] was 3510 nM.
In the case of `CCN(CC)CC(=O)N1CCN(c2ccc3[nH]c(-c4cn5ncnc5c(C)c4C)c(C(C)C)c3n2)[C@@H](C)C1` [Example 902], the IC50 [1, 7] is reported as 1.1 nM, the IC50 [2, 8] is reported as 1.4 nM and the IC50 [3, 9] is reported as 15800 nM.
Work on `CNC1CCC(c2ccc3[nH]c(-c4cn(C)c5ncncc45)c(C(C)C)c3n2)CC1` (stereo not drawn) [Example 296] yielded an IC50 [1, 4] of 0.59 nM, an IC50 [2, 5] of 6.8 nM and an IC50 [3, 6] of 600 nM.
Work on `CC(C)c1c(-c2cc(CO)c3ncnn3c2)[nH]c2ccc(C3CCC(N(C)C4COC4)CC3)nc12` (stereo not drawn) [Example 252] yielded an IC50 [1, 4] of 8 nM, an IC50 [2, 5] of 10 nM and an IC50 [3, 6] of 7260 nM.
In the case of `Cc1c(-c2[nH]c3ccc(N4[C@H](C)CN(C(C)C)C[C@H]4C)nc3c2C(C)C)cn2ncnc2c1C` [Example 865], the IC50 [1, 7] is reported as 1.3 nM, the IC50 [2, 8] is reported as 72 nM and the IC50 [3, 9] is reported as 8890 nM.
With `COc1cc(-c2[nH]c3ccc(C4CCN(CC(N)=O)CC4)nc3c2C(C)C)cn2ncnc12` [Example 558] the IC50 [1, 10] was 1.2 nM, the IC50 [2, 11] was 5.6 nM and the IC50 [3, 12] was 3430 nM.
Compound `Cc1c(-c2[nH]c3ccc(N4CC(NC(=O)CN(C)C)C4)nc3c2C(C)C)cn2ncnc2c1C` [Example 15] has an IC50 [1, 4] of 7.3 nM, an IC50 [2, 5] of 4.3 nM and an IC50 [3, 6] of 1940 nM.
For `Cc1c(-c2[nH]c3ccc(N4CCN(C(=O)C5(N(C)C)CC5)CC4)nc3c2C(C)C)cn2ncnc2c1C` [Example 854], the IC50 [1, 7] was 11 nM, the IC50 [2, 8] was 5 nM and the IC50 [3, 9] was 32300 nM.
In the case of `Cc1c(-c2[nH]c3ccc(C4CCC(N5CCC(F)(F)CC5)CC4)nc3c2C(C)C)cn2ncnc2c1C` (stereo not drawn) [Example 381], the IC50 [1, 4] is reported as 3.7 nM, the IC50 [2, 5] is reported as 5.5 nM and the IC50 [3, 6] is reported as 8060 nM.
In the case of `COc1cc(-c2[nH]c3ccc(C4CCC(N)C4)nc3c2C(C)C)cn2ncnc12` (racemic) [Example 9, 3-(3-isopropyl-2-(8-methoxy-[1,2,4]triazolo[1,5-a]pyridin-6-yl)-1H-pyrrolo[3,2-b]pyridin-5-yl)cyclopentan-1-amine], the IC50 [1, 4] is reported as 1.7 nM, the IC50 ([2]; TLR8 IC50, HEK-Blue cells overexpressing human TLR8, R848 15.9 μM stimulation, SEAP reporter) is reported as 8.2 nM and the IC50 ([3]; TLR9 IC50, HEK-Blue cells overexpressing human TLR9, ODN2006 5 nM stimulation, SEAP reporter) is reported as 2250 nM.
In the case of `COc1cc(-c2[nH]c3cc(C)c(C4CCC(N(C)C5COC5)CC4)nc3c2C(C)C)cn2ncnc12` (stereo not drawn) [Example 331], the IC50 [1, 4] is reported as 1.7 nM, the IC50 [2, 5] is reported as 34 nM and the IC50 [3, 6] is reported as 1910 nM.
